Data published in paper PMC3626541, “A first in human, safety, pharmacokinetics, and clinical activity phase I study of once weekly administration of the Hsp90 inhibitor ganetespib (STA-9090) in patients with solid malignancies” (BMC Cancer, 2013).

Test system: patients with advanced solid tumors
Assay: Safety: adverse events (NCI CTCAE v3.0), ECG
Format: in vivo, human
Method: Patients’ demographics and medical history were recorded at baseline. Physical examination and PS were assessed at baseline and on Day 1 of each cycle. Adverse events (AEs), vital signs, hematology and chemistry values, and creatinine clearance were assessed at baseline and weekly during treatment. Toxicity was graded using National Cancer Institute Common Terminology Criteria for Adverse Events (NCI CTCAE), version 3.0. An electrocardiogram (ECG) was performed at baseline, before and after treatment on Days 1 and 15 of Cycles 1 and 2, and on Day 15 of even-numbered cycles thereafter. CT scans were done at baseline and every 8 weeks thereafter. Tumor response was assessed using Response Evaluation Criteria in Solid Tumors (RECIST, v1.0), with confirmation of responses performed at least 4 weeks later.

[1] = Cycle 1 Day 1 post-dose, patients with QTc prolongation
[2] = repeat ECG later on the same day

CC(C)c1cc(-c2n[nH]c(=O)n2-c2ccc3c(ccn3C)c2)c(O)cc1O [Ganetespib, 5-[2,4-dihydroxy-5-(1 methyl-ethyl)phenyl]-2,4 dihydro-4-(1-methyl-1H indol-5 yl)-3H-1,2,4 triazole-3-one]
Constipation, AE of any grade, Number (%) of patients (150-216 mg/m^2, n = 22): 3 (13.6) n (%)
Decreased appetite, AE of any grade, Number (%) of patients (150-216 mg/m^2, n = 22): 8 (36.4) n (%)
Dehydration, AE of any grade, Number (%) of patients (150-216 mg/m^2, n = 22): 3 (13.6) n (%)
Dehydration, CTCAE Grade 3 and 4 AE, Number (%) of patients (150-216 mg/m^2, n = 22): 1 (4.5) n (%)
Dehydration, serious adverse events, Number (%) of patients (150-216 mg/m^2, n = 22): 1 (4.5) n (%)
Diarrhea, AE of any grade, Number (%) of patients (150-216 mg/m^2, n = 22): 21 (95.5) n (%)
Diarrhea, CTCAE Grade 3 and 4 AE, Number (%) of patients (150-216 mg/m^2, n = 22): 2 (9.1) n (%)
Dizziness, AE of any grade, Number (%) of patients (150-216 mg/m^2, n = 22): 3 (13.6) n (%)
Dry mouth, AE of any grade, Number (%) of patients (150-216 mg/m^2, n = 22): 3 (13.6) n (%)
Dyspnea, AE of any grade, Number (%) of patients (150-216 mg/m^2, n = 22): 4 (18.2) n (%)
Extremity pain, AE of any grade, Number (%) of patients (150-216 mg/m^2, n = 22): 1 (4.5) n (%)
Fatigue, AE of any grade, Number (%) of patients (150-216 mg/m^2, n = 22): 13 (59.1) n (%)
Fatigue, CTCAE Grade 3 and 4 AE, Number (%) of patients (150-216 mg/m^2, n = 22): 4 (18.2) n (%)
Headache, AE of any grade, Number (%) of patients (150-216 mg/m^2, n = 22): 6 (27.3) n (%)
Hyperbilirubinemia, CTCAE Grade 3 and 4 AE, Number (%) of patients (150-216 mg/m^2, n = 22): 2 (9.1) n (%)
Hypokalemia, AE of any grade, Number (%) of patients (150-216 mg/m^2, n = 22): 4 (18.2) n (%)
Hypokalemia, CTCAE Grade 3 and 4 AE, Number (%) of patients (150-216 mg/m^2, n = 22): 2 (9.1) n (%)
Hyponatremia, CTCAE Grade 3 and 4 AE, Number (%) of patients (150-216 mg/m^2, n = 22): 0 n (%)
Hypophosphatemia, AE of any grade, Number (%) of patients (150-216 mg/m^2, n = 22): 2 (9.1) n (%)
Hypophosphatemia, CTCAE Grade 3 and 4 AE, Number (%) of patients (150-216 mg/m^2, n = 22): 2 (9.1) n (%)
Insomnia, AE of any grade, Number (%) of patients (150-216 mg/m^2, n = 22): 6 (27.3) n (%)
Musculoskeletal chest pain, AE of any grade, Number (%) of patients (150-216 mg/m^2, n = 22): 4 (18.2) n (%)
Nausea, AE of any grade, Number (%) of patients (150-216 mg/m^2, n = 22): 7 (31.8) n (%)
Peripheral edema, AE of any grade, Number (%) of patients (150-216 mg/m^2, n = 22): 5 (22.7) n (%)
Pneumonia, serious adverse events, Number (%) of patients (150-216 mg/m^2, n = 22): 1 (4.5) n (%)
Rash, AE of any grade, Number (%) of patients (150-216 mg/m^2, n = 22): 1 (4.5) n (%)
Serum amylase elevated, CTCAE Grade 3 and 4 AE, Number (%) of patients (150-216 mg/m^2, n = 22): 1 (4.5) n (%)
Spinal cord compression, CTCAE Grade 3 and 4 AE, Number (%) of patients (150-216 mg/m^2, n = 22): 0 n (%)
Urinary tract infection, AE of any grade, Number (%) of patients (150-216 mg/m^2, n = 22): 3 (13.6) n (%)
Vomiting, AE of any grade, Number (%) of patients (150-216 mg/m^2, n = 22): 3 (13.6) n (%)
Weight decreased, AE of any grade, Number (%) of patients (150-216 mg/m^2, n = 22): 5 (22.7) n (%)
ALT elevated, AE of any grade, Number (%) of patients (150-216 mg/m^2, n = 22, first of two ALT elevated lines): 5 (22.7) n (%)
ALT elevated, AE of any grade, Number (%) of patients (150-216 mg/m^2, n = 22, second of two ALT elevated lines): 3 (13.6) n (%)
Incidence of diarrhea (150–216 mg/m^2 dose levels): 95.5%
Incidence of fatigue (150–216 mg/m^2 dose levels): 59.1%
ALT elevation, CTCAE Grade 3 and 4 AE, Number (%) of patients (All patients, n = 53): 3 (5.7) n (%)
AST elevated, AE of any grade, Number (%) of patients (All patients, n = 53): 9 (17) n (%)
Abdominal distension, AE of any grade, Number (%) of patients (All patients, n = 53): 6 (11.3) n (%)
Abdominal pain, AE of any grade, Number (%) of patients (All patients, n = 53): 20 (37.7) n (%)
Abdominal pain, serious adverse events, Number (%) of patients (All patients, n = 53): 2 (3.8) n (%)
Anemia, AE of any grade, Number (%) of patients (All patients, n = 53): 16 (30.2) n (%)
Any event, AE of any grade, Number (%) of patients (All patients, n = 53): 53 (100) n (%)
Any event, CTCAE Grade 3 and 4 AE, Number (%) of patients (All patients, n = 53): 36 (67.9) n (%)
Any event, serious adverse events, Number (%) of patients (All patients, n = 53): 15 (28.3) n (%)
Arthralgia, CTCAE Grade 3 and 4 AE, Number (%) of patients (All patients, n = 53): 2 (3.8) n (%)
Asthenia, AE of any grade, Number (%) of patients (All patients, n = 53): 8 (15.1) n (%)
Asthenia, CTCAE Grade 3 and 4 AE, Number (%) of patients (All patients, n = 53): 4 (7.5) n (%)
Asthenia, serious adverse events, Number (%) of patients (All patients, n = 53): 2 (3.8) n (%)
Back pain, AE of any grade, Number (%) of patients (All patients, n = 53): 8 (15.1) n (%)
Constipation, AE of any grade, Number (%) of patients (All patients, n = 53): 9 (17) n (%)
Decreased appetite, AE of any grade, Number (%) of patients (All patients, n = 53): 11 (20.8) n (%)
Dehydration, AE of any grade, Number (%) of patients (All patients, n = 53): 7 (13.2) n (%)
Dehydration, CTCAE Grade 3 and 4 AE, Number (%) of patients (All patients, n = 53): 3 (5.7) n (%)
Dehydration, serious adverse events, Number (%) of patients (All patients, n = 53): 2 (3.8) n (%)
Diarrhea, AE of any grade, Number (%) of patients (All patients, n = 53): 47 (88.7) n (%)
Diarrhea, CTCAE Grade 3 and 4 AE, Number (%) of patients (All patients, n = 53): 4 (7.5) n (%)
Dizziness, AE of any grade, Number (%) of patients (All patients, n = 53): 6 (11.3) n (%)
Dry mouth, AE of any grade, Number (%) of patients (All patients, n = 53): 6 (11.3) n (%)
Dyspnea, AE of any grade, Number (%) of patients (All patients, n = 53): 9 (17) n (%)
Extremity pain, AE of any grade, Number (%) of patients (All patients, n = 53): 6 (11.3) n (%)
Fatigue, AE of any grade, Number (%) of patients (All patients, n = 53): 30 (56.6) n (%)
Fatigue, CTCAE Grade 3 and 4 AE, Number (%) of patients (All patients, n = 53): 6 (11.3) n (%)
Headache, AE of any grade, Number (%) of patients (All patients, n = 53): 9 (17) n (%)
Hyperbilirubinemia, CTCAE Grade 3 and 4 AE, Number (%) of patients (All patients, n = 53): 3 (5.7) n (%)
Hypokalemia, AE of any grade, Number (%) of patients (All patients, n = 53): 7 (13.2) n (%)
Hypokalemia, CTCAE Grade 3 and 4 AE, Number (%) of patients (All patients, n = 53): 2 (3.8) n (%)
Hyponatremia, CTCAE Grade 3 and 4 AE, Number (%) of patients (All patients, n = 53): 3 (5.7) n (%)
Hypophosphatemia, AE of any grade, Number (%) of patients (All patients, n = 53): 7 (13.2) n (%)
Hypophosphatemia, CTCAE Grade 3 and 4 AE, Number (%) of patients (All patients, n = 53): 4 (7.5) n (%)
Insomnia, AE of any grade, Number (%) of patients (All patients, n = 53): 10 (18.9) n (%)
Musculoskeletal chest pain, AE of any grade, Number (%) of patients (All patients, n = 53): 6 (11.3) n (%)
Nausea, AE of any grade, Number (%) of patients (All patients, n = 53): 18 (34) n (%)
Peripheral edema, AE of any grade, Number (%) of patients (All patients, n = 53): 9 (17) n (%)
Pneumonia, serious adverse events, Number (%) of patients (All patients, n = 53): 2 (3.8) n (%)
Rash, AE of any grade, Number (%) of patients (All patients, n = 53): 6 (11.3) n (%)
Serum amylase elevated, CTCAE Grade 3 and 4 AE, Number (%) of patients (All patients, n = 53): 2 (3.8) n (%)
Spinal cord compression, CTCAE Grade 3 and 4 AE, Number (%) of patients (All patients, n = 53): 2 (3.8) n (%)
Urinary tract infection, AE of any grade, Number (%) of patients (All patients, n = 53): 8 (15.1) n (%)
Vomiting, AE of any grade, Number (%) of patients (All patients, n = 53): 10 (18.9) n (%)
Weight decreased, AE of any grade, Number (%) of patients (All patients, n = 53): 7 (13.2) n (%)
ALT elevated, AE of any grade, Number (%) of patients (All patients, n = 53, first of two ALT elevated lines): 10 (18.9) n (%)
ALT elevated, AE of any grade, Number (%) of patients (All patients, n = 53, second of two ALT elevated lines): 6 (11.3) n (%)
QT [1]: 438 ms
QTc (QT with Bazett correction) [1]: 457 ms
Patients with dose reduction (all 53 patients): 7.5%
Patients with dose reduction and delay (all 53 patients): 7.5%
Patients with missed dose (all 53 patients): 30.2%
Patients with dose modification (all 53 patients, mainly due to adverse events): 45.3%
Patients who discontinued treatment due to drug-unrelated adverse events (all in cohort 1): 5.7%
Patients with Grade 3 or 4 AE (all patients): 67.9%
Patients with Grade 3 or 4 fatigue (all patients): 11.3%
Patients with diarrhea, Grade 1 and 2 (all patients): 88.7%
Patients with fatigue, Grade 1 and 2 (all patients): 56.6%
Patients with onset of diarrhea between days 1–7 (all patients): 75.5%
Patients with transient ALP elevation (all patients): 18.9%
Patients with transient ALT elevation (all patients): 11.3%
Patients with transient AST elevation (all patients): 17%
Patients with treatment-related anemia (all patients): 5.7%
Patients with treatment-related neutropenia (all patients): 5.7%
Patients with visual changes (all patients, mild and transient): 15%
Patients with abdominal pain (all patients, mild to moderate): 37.7%
Patients with nausea (all patients, mild to moderate): 34%
Patients with vomiting (all patients, mild to moderate): 18.9%
Patients with on-treatment SAEs (all patients, none considered treatment-related): 28.3%
Patients with Grade 2 or 3 hyberbilirubinemia (all patients, not considered study drug-related): 7.5%
Patients with Grade 1 or 2 blurred vision (doses of 35 mg/m^2, 114 mg/m^2 and 150 mg/m^2): Three patients
Patients with QTc prolongation (higher dose levels, Cycle 1 Day 1 post-dose): Three patients
Patients with treatment-related visual impairment (mild and transient): Two patients
Deaths during the study (none deemed treatment-related): Three deaths
Patients with QTc changes (not symptomatic, not considered clinically meaningful): 91%
Patients with Grade 1 transient visual impairment (one each at 216 and 259 mg/m^2, possibly related to study drug): 2 patients
QT [2]: 414 ms
QTc [2]: 433 ms
